# What was measured:
# FimH = molecular target: T1, FimH (Escherichia coli, UniProt Q1R2J4); assay: Hemagglutination inhibition (HAI) assay with UTI89 bacteria and guinea pig red blood cells; format: cell-based; details: concentration reducing bacterial agglutination of guinea pig red blood cells by greater than 90%; UTI89 bacteria
# T1 construct: endogenous in cells; host or cells: E. coli UTI89 bacteria
# Protocol: “HAI or EC>90” is that concentration of the FimH inhibitor/antagonist which reduces the bacterial agglutination of guinea pig red blood cells by greater than 90%.
# HAI Assay The hemagglutination inhibition (HAI) assay was performed with UTI89 bacteria and guinea pig red blood cells, as previously described (S. J. Hultgren, W. R. Schwan, A. J. Schaeffer, J. L. Duncan Infect. Immun. 1986, 54, 613-620). Compounds not listed were not tested.
# UTI89 bacteria = assay: Biofilm inhibition assay; format: cell-based; details: read-out: Biofilm prevention IC50
# Protocol: Biofilm Assay The biofilm inhibition assay was performed with UTI89 bacteria as previously described (L. Cegelski, J. S. Pinkner, N. D. Hammer, C. K. Cusumano, C. S. Hung, E. Chorell, V. Aberg, J. N. Walker, P. C. Seed, F. Almqvist, M. R. Chapman, S. J. Hultgren Nature Chem. Biol. 2009, 5, 913-919). Compounds not listed were not tested.
# FimHL = FimHL (Escherichia coli, UniProt P08191); assay: Differential scanning fluorimetry (DSF); format: binding; details: purified FimHL 10 μM with mannoside 100 μM; mean of two biological replicates
# Protocol: Differential scanning fluorimetry (DSF) Purified FimHL (10 μM) in the absence or presence of mannoside (100 μM) was combined with 5× SYPRO Orange in a 50 μl reaction mixture buffered in 20 mM HEPES pH 7.5, 150 mM NaCl (HBS) and 0.4% DMSO. Binding equilibria were established by allowing the reaction mixtures to incubate at 23° C. for 30 min. These reaction mixtures were then placed in 96-well clear-bottom PCR plates and subjected to a melt curve from 20-90° C. in 0.5° C. increments of 15 seconds, each followed by a fluorescence read of the “HEX” channel in a Bio-Rad CFX96 thermocycler (Bio-Rad, Hercules, Calif.). Melt curves were fitted to the Boltzmann equation (y=A2+(A1−A2)/(1+exp((x−xo)/dx)) where xo is the Tm) to determine the melting temperature (Tm) using GraphPad Prism 6 (San Diego Calif.). Melting temperatures are represented as the mean and standard error of two biological replicates, each of which consisted of three technical replicates. Compounds not listed were not tested.
Compound,HAI titer EC>90 (FimH) [µM],IC50 (UTI89 bacteria) [nM],DSF Melting Temp (FimHL) [°C]
"Cc1cc(-n2cc(-c3cccnc3)nn2)ccc1O[C@H]1O[C@H](CO)[C@@H](O)[C@H](O)[C@@H]1O [Example 2, 2-methyl-4-[4-(pyridin-3-yl)-1H-1,2,3-triazol-1-yl]phenyl α-D-mannopyranoside]",0.032,524,74.4
"Cc1cc(-n2cc(-c3ccccc3)nn2)ccc1O[C@H]1O[C@H](CO)[C@@H](O)[C@H](O)[C@@H]1O [Example 4, 2-methyl-4-[4-(phenyl)-1H-1,2,3-triazol-1-yl]phenyl α-D-mannopyranoside]",0.032,320,74.1
"Cc1cc(-c2ccc3ccnc(N)c3c2)ccc1O[C@H]1O[C@H](CO)[C@@H](O)[C@H](O)[C@@H]1O [Example 14, 7-[4′-(α-D-mannopyranosyloxy)-3′-methylphenyl]-isoquinolin-1-amine]",0.02,336,75.1
"Cc1cc(-c2ccc3c(c2)C(=O)NCC3)ccc1OC1OC(CO)C(O)C(O)C1O [Example 21, 3,4-Dihydro-7-[4′-(α-D-mannopyranosyloxy)-3′-methylphenyl]-1(2H)-iso-quinolinone]",0.032,247,75.0
"CC(=O)Nc1cccc(Oc2cc(C)c(O[C@H]3O[C@H](CO)[C@@H](O)[C@H](O)[C@@H]3O)cc2[N+](=O)[O-])c1 [Example 31, N-(3-[4-(α-D-mannopyranosyloxy)-5-methyl-2-nitrophenoxy]phenyl)acetamide]",0.5,,
"Cc1cc(Oc2ccc(C#N)cc2)c([N+](=O)[O-])cc1O[C@H]1O[C@H](CO)[C@@H](O)[C@H](O)[C@@H]1O [Example 32, 4-[4-(α-D-mannopyranosyloxy)-5-methyl-2-nitrophenoxy]benzonitrile]",0.5,,
"CC(=O)Nc1ccc(Oc2cc(C)c(O[C@H]3O[C@H](CO)[C@@H](O)[C@H](O)[C@@H]3O)cc2[N+](=O)[O-])cc1 [Example 33, N-(4-[4-(α-D-mannopyranosyloxy)-5-methyl-2-nitrophenoxy]phenyl)acetamide]",0.25,,
"Cc1cc(Oc2ccc3ccncc3c2)c([N+](=O)[O-])cc1O[C@H]1O[C@H](CO)[C@@H](O)[C@H](O)[C@@H]1O [Example 34, 7-[4-(α-D-mannopyranosyloxy)-5-methyl-2-nitrophenoxy]isoquinoline]",0.125,,
"Cc1cc(Oc2ccccc2C#N)c([N+](=O)[O-])cc1O[C@H]1O[C@H](CO)[C@@H](O)[C@H](O)[C@@H]1O [Example 35, 2-[4-(α-D-mannopyranosyloxy)-5-methyl-2-nitrophenoxy]benzonitrile]",1,,
"Cc1cc(Oc2ccc3cccnc3c2)c([N+](=O)[O-])cc1O[C@H]1O[C@H](CO)[C@@H](O)[C@H](O)[C@@H]1O [Example 36, 7-[4-(α-D-mannopyranosyloxy)-5-methyl-2-nitrophenoxy]quinoline]",0.5,,
"CS(=O)(=O)c1ccc(-c2ccc(O[C@H]3O[C@H](CO)[C@@H](O)[C@H](O)[C@@H]3O)c(Cl)c2)cc1 [Example 37, 3-chloro-4′-(methylsulfonyl)biphenyl-4-yl α-D-mannopyranoside]",0.15,,
"Cc1cc(-c2ccc3cc[nH]c(=O)c3c2)cc(C)c1OC1OC(CO)C(O)C(O)C1O [Example 38, 7-[4′-(α-D-mannopyranosyloxy)-3′,5′-dimethylphenyl]-1(2H)-iso-quinolinone]",0.266,,
"CNC(=O)c1cccc(-c2ccc(O[C@H]3O[C@H](CO)[C@@H](O)[C@H](O)[C@@H]3O)c(C#N)c2)c1 [Example 39, 4′-(α-D-mannopyranosyloxy)-3′-cyano-N-methyl-1,1′biphenyl-3-carboxamide]",0.188,,

# — patent US10738070B2, “Mannose-derived antagonists of FimH useful for treating disease” (Fimbrion Therapeutics, Inc., priority 2016, dated 2020)
